Assay results from PMC6409085, “Three odorant-binding proteins are involved in the behavioral response of Sogatella furcifera to rice plant volatiles” (PeerJ, 2019).
Where “and” joins values, the source holds several entries; their conditions need not be identical. Equal values may be shown once.

What was measured:
Test in all cases: biochemical
Type in all cases: binding
SfurOBP3 = SfurOBP3 (Sogatella furcifera, UniProt V5T818); conditions: for Fluorescence competitive binding assay, fluorescence intensity: OBP3, three replicate columns
Outline: (§1)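 In 50 mM Tris-HCl pH 7.4, odorants displace 1-NPN (2.0 µM) from 2.0 µM protein. Emission at 390–490 nm under 337 nm excitation is measured 2 min after competitor addition, in triplicate. Ki is obtained from IC50 and the 1-NPN dissociation constant.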

SfurOBP1 = SfurOBP1 (Sogatella furcifera, UniProt V5T8N5); conditions: for Fluorescence competitive binding assay, fluorescence intensity: OBP1, three replicate columns
Outline: as §1

SfurOBP11 = SfurOBP11 (Sogatella furcifera, UniProt V5T6E3)
Outline: as §1

SfurOBP2 = SfurOBP2 (Sogatella furcifera, UniProt V5T759)
Outline: as §1

Sequence of SfurOBP11 (V5T6E3 entry or part of it): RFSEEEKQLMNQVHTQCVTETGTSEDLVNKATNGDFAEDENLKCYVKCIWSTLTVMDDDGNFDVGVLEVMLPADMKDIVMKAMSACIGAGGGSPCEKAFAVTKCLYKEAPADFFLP
Sequence of SfurOBP2 (V5T759 entry or part of it): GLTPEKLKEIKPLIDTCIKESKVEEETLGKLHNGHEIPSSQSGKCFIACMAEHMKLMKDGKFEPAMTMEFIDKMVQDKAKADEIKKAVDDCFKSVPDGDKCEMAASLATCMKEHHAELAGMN
Sequence of SfurOBP3 (V5T818 entry or part of it): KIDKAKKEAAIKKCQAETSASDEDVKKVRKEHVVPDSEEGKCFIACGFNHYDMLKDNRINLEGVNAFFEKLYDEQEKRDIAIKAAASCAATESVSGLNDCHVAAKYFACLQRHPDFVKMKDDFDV
Sequence of SfurOBP1 (V5T8N5 entry or part of it): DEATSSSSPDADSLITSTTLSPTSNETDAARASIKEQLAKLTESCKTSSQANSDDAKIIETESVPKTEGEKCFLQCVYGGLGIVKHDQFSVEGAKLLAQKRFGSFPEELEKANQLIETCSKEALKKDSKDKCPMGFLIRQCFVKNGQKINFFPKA

CCCCCCCCCCCCO [lauryl alcohol]
Fluorescence competitive binding assay, fluorescence intensity (SfurOBP3; ligand concentration 2): 67563 and 64113 and 67485
Fluorescence competitive binding assay, fluorescence intensity (SfurOBP3; ligand concentration 4): 70812 and 72838 and 74184
Fluorescence competitive binding assay, fluorescence intensity (SfurOBP3; ligand concentration 6): 65634 and 64114 and 68940
Fluorescence competitive binding assay, fluorescence intensity (SfurOBP3; ligand concentration 8): 62878 and 67093 and 68072
Fluorescence competitive binding assay, fluorescence intensity (SfurOBP3; ligand concentration 10): 60134 and 69541 and 65795
Fluorescence competitive binding assay, fluorescence intensity (SfurOBP3; ligand concentration 12): 68479 and 64625 and 78735
Fluorescence competitive binding assay, fluorescence intensity (SfurOBP3; ligand concentration 14): 60140 and 40039 and 67409
Fluorescence competitive binding assay, fluorescence intensity (SfurOBP3; ligand concentration 16): 38861 and 39269 and 45097
Fluorescence competitive binding assay, fluorescence intensity (SfurOBP3; ligand concentration 18): 51398 and 59369 and 52474
Fluorescence competitive binding assay, fluorescence intensity (SfurOBP3; ligand concentration 20): 68555 and 48789 and 43446
IC50 (SfurOBP3; SfurOBP3, protein and 1-NPN both 2.0 µM, competitor 2-20 µM, read-out: IC50): > 20 µM
Fluorescence competitive binding assay, fluorescence intensity (SfurOBP1; ligand concentration 2 (μM)): 7624 and 6465 and 8545
Fluorescence competitive binding assay, fluorescence intensity (SfurOBP1; ligand concentration 4 (μM)): 7313 and 7318 and 7353
Fluorescence competitive binding assay, fluorescence intensity (SfurOBP1; ligand concentration 6 (μM)): 7143 and 7275 and 7922
Fluorescence competitive binding assay, fluorescence intensity (SfurOBP1; ligand concentration 8 (μM)): 7358 and 7784 and 8873
Fluorescence competitive binding assay, fluorescence intensity (SfurOBP1; ligand concentration 10 (μM)): 7141 and 7560 and 7926
Fluorescence competitive binding assay, fluorescence intensity (SfurOBP1; ligand concentration 12 (μM)): 7810 and 7463 and 8566
Fluorescence competitive binding assay, fluorescence intensity (SfurOBP1; ligand concentration 14 (μM)): 7736 and 8413 and 7236
Fluorescence competitive binding assay, fluorescence intensity (SfurOBP1; ligand concentration 16 (μM)): 8777 and 6935 and 7055
Fluorescence competitive binding assay, fluorescence intensity (SfurOBP1; ligand concentration 18 (μM)): 9193 and 9578 and 9152
Fluorescence competitive binding assay, fluorescence intensity (SfurOBP1; ligand concentration 20 (μM)): 11048 and 9816 and 8594
IC50 (SfurOBP1; SfurOBP1, protein and 1-NPN both 2.0 µM, competitor 2-20 µM, read-out: IC50): > 20 µM
IC50 (SfurOBP11; SfurOBP11, protein and 1-NPN both 2.0 µM, competitor 2-20 µM, read-out: IC50): > 20 µM
Fluorescence intensity, fluorescence competitive binding assay, OBP11 (SfurOBP11; ligand concentration 2, replicate 1): 24217
Fluorescence intensity, fluorescence competitive binding assay, OBP11 (SfurOBP11; ligand concentration 2, replicate 2): 24290
Fluorescence intensity, fluorescence competitive binding assay, OBP11 (SfurOBP11; ligand concentration 2, replicate 3): 24783
Fluorescence intensity, fluorescence competitive binding assay, OBP11 (SfurOBP11; ligand concentration 4, replicate 1): 24290
Fluorescence intensity, fluorescence competitive binding assay, OBP11 (SfurOBP11; ligand concentration 4, replicate 2): 24322
Fluorescence intensity, fluorescence competitive binding assay, OBP11 (SfurOBP11; ligand concentration 4, replicate 3): 23442
Fluorescence intensity, fluorescence competitive binding assay, OBP11 (SfurOBP11; ligand concentration 6, replicate 1): 24952
Fluorescence intensity, fluorescence competitive binding assay, OBP11 (SfurOBP11; ligand concentration 6, replicate 2): 22901
Fluorescence intensity, fluorescence competitive binding assay, OBP11 (SfurOBP11; ligand concentration 6, replicate 3): 24534
Fluorescence intensity, fluorescence competitive binding assay, OBP11 (SfurOBP11; ligand concentration 8, replicate 1): 24078
Fluorescence intensity, fluorescence competitive binding assay, OBP11 (SfurOBP11; ligand concentration 8, replicate 2): 21947
Fluorescence intensity, fluorescence competitive binding assay, OBP11 (SfurOBP11; ligand concentration 8, replicate 3): 24599
Fluorescence intensity, fluorescence competitive binding assay, OBP11 (SfurOBP11; ligand concentration 10, replicate 1): 22957
Fluorescence intensity, fluorescence competitive binding assay, OBP11 (SfurOBP11; ligand concentration 10, replicate 2): 24005
Fluorescence intensity, fluorescence competitive binding assay, OBP11 (SfurOBP11; ligand concentration 10, replicate 3): 23087
Fluorescence intensity, fluorescence competitive binding assay, OBP11 (SfurOBP11; ligand concentration 12, replicate 1): 20961
Fluorescence intensity, fluorescence competitive binding assay, OBP11 (SfurOBP11; ligand concentration 12, replicate 2): 21769
Fluorescence intensity, fluorescence competitive binding assay, OBP11 (SfurOBP11; ligand concentration 12, replicate 3): 22579
Fluorescence intensity, fluorescence competitive binding assay, OBP11 (SfurOBP11; ligand concentration 14, replicate 1): 19736
Fluorescence intensity, fluorescence competitive binding assay, OBP11 (SfurOBP11; ligand concentration 14, replicate 2): 20687
Fluorescence intensity, fluorescence competitive binding assay, OBP11 (SfurOBP11; ligand concentration 14, replicate 3): 20422
Fluorescence intensity, fluorescence competitive binding assay, OBP11 (SfurOBP11; ligand concentration 16, replicate 1): 16888
Fluorescence intensity, fluorescence competitive binding assay, OBP11 (SfurOBP11; ligand concentration 16, replicate 2): 20499
Fluorescence intensity, fluorescence competitive binding assay, OBP11 (SfurOBP11; ligand concentration 16, replicate 3): 18999
Fluorescence intensity, fluorescence competitive binding assay, OBP11 (SfurOBP11; ligand concentration 18, replicate 1): 18870
Fluorescence intensity, fluorescence competitive binding assay, OBP11 (SfurOBP11; ligand concentration 18, replicate 2): 19005
Fluorescence intensity, fluorescence competitive binding assay, OBP11 (SfurOBP11; ligand concentration 18, replicate 3): 19199
Fluorescence intensity, fluorescence competitive binding assay, OBP11 (SfurOBP11; ligand concentration 20, replicate 1): 20952
Fluorescence intensity, fluorescence competitive binding assay, OBP11 (SfurOBP11; ligand concentration 20, replicate 2): 19127
Fluorescence intensity, fluorescence competitive binding assay, OBP11 (SfurOBP11; ligand concentration 20, replicate 3): 18042
IC50 (SfurOBP2; SfurOBP2, protein and 1-NPN both 2.0 µM, competitor 2-20 µM, read-out: IC50): > 20 µM
Fluorescence competitive binding assay, OBP2 (raw fluorescence reading) (SfurOBP2; ligand concentration 2 (unit not given), replicate column 1 of 3): 17977
Fluorescence competitive binding assay, OBP2 (raw fluorescence reading) (SfurOBP2; ligand concentration 2 (unit not given), replicate column 2 of 3): 18256
Fluorescence competitive binding assay, OBP2 (raw fluorescence reading) (SfurOBP2; ligand concentration 2 (unit not given), replicate column 3 of 3): 18222
Fluorescence competitive binding assay, OBP2 (raw fluorescence reading) (SfurOBP2; ligand concentration 4 (unit not given), replicate column 1 of 3): 21586
Fluorescence competitive binding assay, OBP2 (raw fluorescence reading) (SfurOBP2; ligand concentration 4 (unit not given), replicate column 2 of 3): 19639
Fluorescence competitive binding assay, OBP2 (raw fluorescence reading) (SfurOBP2; ligand concentration 4 (unit not given), replicate column 3 of 3): 16260
Fluorescence competitive binding assay, OBP2 (raw fluorescence reading) (SfurOBP2; ligand concentration 6 (unit not given), replicate column 1 of 3): 18208
Fluorescence competitive binding assay, OBP2 (raw fluorescence reading) (SfurOBP2; ligand concentration 6 (unit not given), replicate column 2 of 3): 18064
Fluorescence competitive binding assay, OBP2 (raw fluorescence reading) (SfurOBP2; ligand concentration 6 (unit not given), replicate column 3 of 3): 15812
Fluorescence competitive binding assay, OBP2 (raw fluorescence reading) (SfurOBP2; ligand concentration 8 (unit not given), replicate column 1 of 3): 16946
Fluorescence competitive binding assay, OBP2 (raw fluorescence reading) (SfurOBP2; ligand concentration 8 (unit not given), replicate column 2 of 3): 12445
Fluorescence competitive binding assay, OBP2 (raw fluorescence reading) (SfurOBP2; ligand concentration 8 (unit not given), replicate column 3 of 3): 14953
Fluorescence competitive binding assay, OBP2 (raw fluorescence reading) (SfurOBP2; ligand concentration 10 (unit not given), replicate column 1 of 3): 16387
Fluorescence competitive binding assay, OBP2 (raw fluorescence reading) (SfurOBP2; ligand concentration 10 (unit not given), replicate column 2 of 3): 15939
Fluorescence competitive binding assay, OBP2 (raw fluorescence reading) (SfurOBP2; ligand concentration 10 (unit not given), replicate column 3 of 3): 15218
Fluorescence competitive binding assay, OBP2 (raw fluorescence reading) (SfurOBP2; ligand concentration 12 (unit not given), replicate column 1 of 3): 16171
Fluorescence competitive binding assay, OBP2 (raw fluorescence reading) (SfurOBP2; ligand concentration 12 (unit not given), replicate column 2 of 3): 15043
Fluorescence competitive binding assay, OBP2 (raw fluorescence reading) (SfurOBP2; ligand concentration 12 (unit not given), replicate column 3 of 3): 14391
Fluorescence competitive binding assay, OBP2 (raw fluorescence reading) (SfurOBP2; ligand concentration 14 (unit not given), replicate column 1 of 3): 14286
Fluorescence competitive binding assay, OBP2 (raw fluorescence reading) (SfurOBP2; ligand concentration 14 (unit not given), replicate column 2 of 3): 13952
Fluorescence competitive binding assay, OBP2 (raw fluorescence reading) (SfurOBP2; ligand concentration 14 (unit not given), replicate column 3 of 3): 14683
Fluorescence competitive binding assay, OBP2 (raw fluorescence reading) (SfurOBP2; ligand concentration 16 (unit not given), replicate column 1 of 3): 13014
Fluorescence competitive binding assay, OBP2 (raw fluorescence reading) (SfurOBP2; ligand concentration 16 (unit not given), replicate column 2 of 3): 12749
Fluorescence competitive binding assay, OBP2 (raw fluorescence reading) (SfurOBP2; ligand concentration 16 (unit not given), replicate column 3 of 3): 13096
Fluorescence competitive binding assay, OBP2 (raw fluorescence reading) (SfurOBP2; ligand concentration 18 (unit not given), replicate column 1 of 3): 12746
Fluorescence competitive binding assay, OBP2 (raw fluorescence reading) (SfurOBP2; ligand concentration 18 (unit not given), replicate column 2 of 3): 12759
Fluorescence competitive binding assay, OBP2 (raw fluorescence reading) (SfurOBP2; ligand concentration 18 (unit not given), replicate column 3 of 3): 12788
Fluorescence competitive binding assay, OBP2 (raw fluorescence reading) (SfurOBP2; ligand concentration 20 (unit not given), replicate column 1 of 3): 13087
Fluorescence competitive binding assay, OBP2 (raw fluorescence reading) (SfurOBP2; ligand concentration 20 (unit not given), replicate column 2 of 3): 12766
Fluorescence competitive binding assay, OBP2 (raw fluorescence reading) (SfurOBP2; ligand concentration 20 (unit not given), replicate column 3 of 3): 13106
